For this assay, the target named is 5-HT2A receptor (Homo sapiens, UniProt P28223). Kind of assay: 5-HT2A receptor isotope competition affinity assay. The format is binding. How it is done: A radiolabeled ligand (agonist or antagonist) incubated with receptor protein could form a receptor-ligand complex. An added test compound could compete with the isotopically labeled ligand for the receptor binding, eventually forming a relative steady-state equilibrium. The affinity of the test compound for the receptor was indirectly evaluated by measuring the dissociation of the isotopically labeled ligand from the receptor.
Chain of 5-HT2A receptor (P28223 whole entry): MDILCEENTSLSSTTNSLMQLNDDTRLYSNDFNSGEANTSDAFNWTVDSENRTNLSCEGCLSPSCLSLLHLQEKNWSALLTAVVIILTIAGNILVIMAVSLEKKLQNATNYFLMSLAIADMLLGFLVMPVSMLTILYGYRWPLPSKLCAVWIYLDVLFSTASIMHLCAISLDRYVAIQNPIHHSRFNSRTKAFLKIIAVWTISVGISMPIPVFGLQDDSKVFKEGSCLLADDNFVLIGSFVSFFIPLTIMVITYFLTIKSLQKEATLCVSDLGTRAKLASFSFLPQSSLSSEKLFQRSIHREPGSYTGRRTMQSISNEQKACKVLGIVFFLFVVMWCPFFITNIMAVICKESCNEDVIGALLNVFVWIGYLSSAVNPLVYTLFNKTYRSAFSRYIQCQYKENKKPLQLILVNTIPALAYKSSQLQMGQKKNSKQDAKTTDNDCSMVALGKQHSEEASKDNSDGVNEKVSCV
A 100x serial gradient dilution of compounds was prepared in DMSO, starting from 1 mM with 4-fold serial dilutions, resulting in 10 concentration points. Using a pipettor, 1 µL of each gradient concentration of the test compound (final concentration starting at 10 µM, 4-fold serial dilutions, 10 concentration points) was transferred to a 96-well assay plate, to each well of which 49 µL of 5-HT2A receptor protein (102 µg/mL, prepared in an assay buffer: 50 mM Tris-HCl, pH 7.4) had been added in advance (final concentration 5 µg/well). This was followed by the addition of 50 µL of isotopically labeled [^3H]-Ketanserin (2 nM, 2× final concentration, prepared in the assay buffer). The plate was sealed and incubated on a shaker at room temperature for 1 hour. The reaction mixture was filtered through a Unifilter-96 GF/C filter plate pre-treated with 0.3% PEI. The filter plate was washed with a precooled (4°C) assay buffer and then dried in an incubator at 50°C. A scintillation liquid was added, and the plate was read using a MicroBeta2 instrument. The percentage inhibition was calculated using the equation: %Inhibition=(CountHigh Signal Control-CountSample)/(CountHigh Signal Control-CountLow Signal Control)*100. A four-parameter logistic fit was used to calculate the IC50 value. High Signal Control: No compound group (the same volume of DMSO substituted). Low Signal Control: Ketanserin group (non-isotopically labeled, 2× final concentration). Table 1: Results of 5-HT2A receptor isotope competition affinity assay, Ki Values

Where [1] appears, read: competition with [3H]-Ketanserin, 1 hour, room temperature, read-out: 5-HT2A receptor/Ki.

Like-named read-outs stand apart in the source and are kept apart here.

`COc1ccc(F)c2nnc(CCN3CC(c4c[nH]c5cc(F)ccc45)C3)n12` [Compound 148, 6-fluoro-3-(1-(2-(8-fluoro-5-methoxy-(1,2,4)triazolo(4,3-a)pyridin-3-yl)ethyl)azetidin-3-yl)-1H-indole]: the Ki under setting [1] is under 100 nM.

Regarding `COc1ccccc1CCCN1CCC(c2n[nH]c3ccncc23)C1` (centres unmarked) [Compound 30], the Ki under setting [1] was under 100 nM.

In the case of `Oc1cccc2[nH]cc(C3CCN(CCCc4ncon4)C3)c12` (centres unmarked) [Compound 173, 3-(1-(3-(1,2,4-oxadiazol-3-yl)propyl)pyrrolidin-3-yl)-1H-indol-4-ol], under setting [1], the Ki was under 100 nM.

In the case of `COc1ccccc1CCCN1CCC(c2c[nH]c3cccc(F)c23)C1` (centres unmarked) [Compound 8], the Ki under setting [1] was under 100 nM.

Take `c1ccc2c(C3CCN(CCc4nnc5sccn45)C3)c[nH]c2c1` (centres unmarked) [Compound 143, 3-(2-(3-(1H-indol-3-yl)pyrrolidin-1-yl)ethyl)thiazolo[2,3-c][1,2,4]triazole]: under setting [1], the Ki is under 100 nM.

For the compound `CC(CCc1nncn1C(C)C)N1CCC(c2c[nH]c3cc(F)ccc23)C1` (centres unmarked) [Compound 91], the Ki under setting [1] was under 100 nM.

Turning to `c1ccc2c(C3CCN(CCCn4nccn4)C3)n[nH]c2c1` (centres unmarked) [Compound 189, 3-(1-(3-(2H-1,2,3-triazol-2-yl)propyl)pyrrolidin-3-yl)-1H-indazole], the Ki under setting [1] was under 100 nM.

Consider `COc1ccccc1CCN1CCC(c2c[nH]c3cccc(O)c23)C1` (centres unmarked) [Compound 1, 3-(1-(2-(2-methoxyphenyl)ethyl)pyrrolidin-3-yl)-1H-indol-4-ol], for which, under setting [1], the Ki was under 100 nM.

`COc1ccccc1CCCN1CCOC(c2c[nH]c3ccncc23)C1` (centres unmarked) [Compound 34, 4-(3-(2-methoxyphenyl)propyl)-2-(1H-pyrrolo[3,2-c]pyridin-3-yl)morpholine] came in with a Ki of under 100 nM.

With `Cc1nn(CCCN2CC[C@@H](c3c[nH]c4cccc(O)c34)C2)nc1C` [Compound 186, (S)-3-(1-(3-(4,5-dimethyl-2H-1,2,3-triazol-2-yl)propyl)pyrrolidin-3-yl)-1H-indol-4-ol], under setting [1], the Ki is under 100 nM.

Turning to `CC(C)n1cnnc1CCCN1CCC(c2c[nH]c3ccccc23)C1` (centres unmarked) [Compound 79], the Ki under setting [1] is under 100 nM.

In the case of `c1ccc2c(c1)CC(CN1CCC(c3c[nH]c4ccncc34)C1)CO2` (centres unmarked) [Compound 141], under setting [1], the Ki is under 100 nM.

Take `COc1ccccc1CCCN1CCOC(c2n[nH]c3ccccc23)C1` (centres unmarked) [Compound 37, 3-(4-(3-(2-methoxyphenyl)propyl)morpholin-2-yl)-1H-indazole]: the Ki is under 100 nM.

`Cc1nnc(CCCN2CCC(c3c[nH]c4ccccc34)C2)n1C(C)C` (centres unmarked) [Compound 86, 3-(1-(3-(5-methyl-4-(propan-2-yl)-4H-1,2,4-triazol-3-yl)propyl)pyrrolidin-3-yl)-1H-indole]: under setting [1], the Ki was under 100 nM.

Consider `Cn1cc(CCCN2CCC(c3noc4cc(F)ccc34)C2)cn1` (centres unmarked) [Compound 68], for which the Ki under setting [1] is under 100 nM.

On to `Oc1cccc2[nH]cc(C3CN(CCCc4cc(F)ccc4F)CCO3)c12` (centres unmarked) [Compound 40], for which the Ki under setting [1] is under 100 nM.

For `CC(C)n1cnnc1CCCN1CCC(c2c[nH]c3cc(F)ccc23)C1` (centres unmarked) [Compound 84], the Ki under setting [1] was under 100 nM.

With `C1=C(c2c[nH]c3ccccc23)CN(CCCn2nccn2)CC1` [Compound 179, 3-(1-(3-(2H-1,2,3-triazol-2-yl)propyl)-1,2,5,6-tetrahydropyridin-3-yl)-1H-indole], under setting [1], the Ki is under 100 nM.

As for `c1ccc2c(C3CCN(CC4CCn5c(nnc5C5CC5)C4)C3)c[nH]c2c1` (centres unmarked) [Compound 145, 3-(1-((3-cyclopropyl-SH,6H,7H,8H-[1,2,4]triazolo[4,3-a]pyridine-7-yl)methyl)pyrrolidin-3-yl)-1H-indole], under setting [1], the Ki was under 100 nM.

As for `c1ccc2c([C@H]3CCN(CCCn4nccn4)C3)c[nH]c2c1` [Compound 177, (R)-3-(1-(3-(2H-1,2,3-triazol-2-yl)propyl)pyrrolidin-3-yl)-1H-indole], the Ki under setting [1] is under 100 nM.

Turning to `Oc1cccc2[nH]cc([C@H]3CCN(CCCn4nccn4)C3)c12` [Compound 181, (R)-3-(1-(3-(2H-1,2,3-triazol-2-yl)propyl)pyrrolidin-3-yl)-1H-indol-4-ol], the Ki under setting [1] was under 100 nM.

With `COc1ccccc1C1CCN(CCc2c[nH]c3cccc(O)c23)CC1` [Compound 10, 3-(2-(4-(2-methoxyphenyl)piperidin-1-yl)ethyl)-1H-indol-4-ol], the Ki under setting [1] is under 100 nM.

Take `Cc1nn(CCCN2CC[C@H](c3c[nH]c4cccc(O)c34)C2)nc1C` [Compound 185, (R)-3-(1-(3-(4,5-dimethyl-2H-1,2,3-triazol-2-yl)propyl)pyrrolidin-3-yl)-1H-indol-4-ol]: the Ki under setting [1] was under 100 nM.

As to `CC1CN(CCCc2nncn2C(C)C)CC1c1c[nH]c2cc(F)ccc12` (centres unmarked) [Compound 90, 6-fluoro-3-(4-methyl-1-(3-(4-(propan-2-yl)-4H-1,2,4-triazol-3-yl)propyl)pyrrolidin-3-yl)-1H-indole], the Ki under setting [1] was under 100 nM.

In the case of `COc1ccccc1CCCN1CCCC(c2c[nH]c3cccc(O)c23)C1` (centres unmarked) [Compound 4, 3-(1-(3-(2-methoxyphenyl)propyl)piperidin-3-yl)-1H-indol-4-ol], the Ki under setting [1] was under 100 nM.

`COc1ccccc1CCCN1CCC(c2n[nH]c3ccccc23)C1` (centres unmarked) [Compound 23]: the Ki under setting [1] is under 100 nM.

`CC(C)n1cnnc1CCCN1CCC(n2ccc3cc(F)ccc32)C1` (centres unmarked) [Compound 80]: the Ki under setting [1] was under 100 nM.

Turning to `COc1ccccc1CCCN1CCC(c2c[nH]c3ncccc23)C1` (centres unmarked) [Compound 22], under setting [1], the Ki was under 100 nM.

The compound `COc1ccccc1CCCN1CCOC(c2c[nH]c3ccccc23)C1` (centres unmarked) [Compound 29, 2-(1H-indol-3-yl)-4-(3-(2-methoxyphenyl)propyl)morpholine] yielded a Ki of under 100 nM.

As to `Oc1cccc2[nH]cc(C3CCN(CCc4coc5c(F)cccc45)C3)c12` (centres unmarked) [Compound 135], the Ki under setting [1] was under 100 nM.

Turning to `Fc1ccc2c(C3CCN(CCCc4nncn4C4CC4)C3)c[nH]c2c1` (centres unmarked) [Compound 99], the Ki under setting [1] was under 100 nM.

With `Fc1ccc2c(C3CCN(CCCc4nncn4C4CCC4)C3)c[nH]c2c1` (centres unmarked) [Compound 92], the Ki under setting [1] was under 100 nM.

In the case of `Fc1ccc2c(C3CCN(CCc4nnc5c(F)cccn45)C3)c[nH]c2c1` (centres unmarked) [Compound 149, 6-fluoro-3-(1-(2-(8-fluoro-(1,2,4)triazolo[4,3-a]pyridin-3-yl)ethyl)pyrrolidin-3-yl)-1H-indole], the Ki under setting [1] was under 100 nM.

On to `COc1ccccc1CCCN1CC(c2c[nH]c3ccccc23)C1` [Compound 11, 3-(1-(3-(2-methoxyphenyl)propyl)azetidin-3-yl)-1H-indole], for which the Ki under setting [1] is under 100 nM.

Take `CC(C)c1nc(CCCN2CCC(c3c[nH]c4cccc(O)c34)C2)no1` (centres unmarked) [Compound 174, 3-(1-(3-(5-isopropyl-1,2,4-oxadiazol-3-yl)propyl)pyrrolidin-3-yl)-1H-indol-4-ol]: the Ki under setting [1] is under 100 nM.

Take `COc1cccc2nnc(CCN3CCC(c4c[nH]c5cc(F)ccc45)C3)n12` (centres unmarked) [Compound 147, 6-fluoro-3-(1-(2-(5-methoxy-(1,2,4)triazolo(4,3-a)pyridin-3-yl)ethyl)pyrrolidin-3-yl)-1H-indole]: the Ki under setting [1] was under 100 nM.

In the case of `c1ccc2c(C3CCN(CCCc4nncs4)C3)c[nH]c2c1` (centres unmarked) [Compound 50, 3-(1-(3-(1,3,4-thiadiazol-2-yl)propyl)pyrrolidin-3-yl)-1H-indole], the Ki is under 100 nM.

As to `c1ccc2c([C@@H]3CCN(CCCn4nccn4)C3)c[nH]c2c1` [Compound 178, (S)-3-(1-(3-(2H-1,2,3-triazol-2-yl)propyl)pyrrolidin-3-yl)-1H-indole], the Ki under setting [1] was under 100 nM.

These data come from EP4752142A1, “5-HT2A RECEPTOR AGONIST, AND PREPARATION METHOD THEREFOR AND USE THEREOF” (Innovstone Therapeutics Limited, priority 2023, dated 2025).
